Measurements published in paper PMC7821884, “BRAF inhibition protects against hearing loss in mice” (Science Advances, 2020).

Assays:
[1] = system: human neuroblastoma and lung carcinoma cell lines; assay: Tumor Cell Titer-Glo viability assay, interference with cisplatin tumor killing (six cell lines); format: cell-based; conditions: compound at 3× protective IC50 (dabrafenib 35 μM, AZD5438 […]) + 15 μM cisplatin (200 μM for A549), 48 hours
Source text: (§1) In clinical settings, cisplatin is used to treat several tumor types, including neuroblastoma and lung carcinoma. […] Medium-alone–, cisplatin-alone–, and dabrafenib-alone–treated cells were used as controls, and viability was reported as percent survival compared to medium alone (Fig. 4E).
(§2) Three human neuroblastoma cell lines IMR-32, SH-SY5Y, and, SK-N-AS, as well as three human lung carcinoma cell lines SHP-77 small cell, H1155 non–small cell, and A549 non–small cell, were used to determine the compounds’ effect on cisplatin’s tumor-killing efficacy ([77]–[83]). Cell lines were purchased from the American Type Culture Collection (ATCC), and cell culture was conducted according to ATCC specifications. Neuroblastoma cell lines IMR-32 and SH-SY5Y are maintained in Dulbecco’s modified Eagle’s medium (DMEM) 1× with glucose (4.5 g/liter), L-glutamine, and sodium pyruvate (10-013-CV, Corning) with 10% fetal bovine serum (FBS) (35011132, Corning) and ampicillin (50 μg/ml; A5354-10ML, Sigma-Aldrich) added. The SK-N-AS cell line is maintained in DMEM 1× with D-glucose (4.5 g/liter), L-glutamine, and 25 mM Hepes (12430-054, Gibco) with 10% FBS, 0.1 mM nonessential amino acids, and ampicillin (50 μg/ml) added. A549 cells are maintained in F-12K medium with L-glutamine (30-2004, ATCC) with 10% FBS and ampicillin (50 μg/ml) added. […]

HEI-OC1 cell line = assay: Caspase-Glo 3/7 activity screen for protection from cisplatin-induced cell death; format: cell-based, mouse; conditions: Mus musculus; HEI-OC1, 50 μM cisplatin, 22 hours
Protocol: An unbiased screen for compounds protective against cisplatin ototoxicity ([12], [13]) was conducted using the immortalized inner ear cell line HEI-OC1 derived from mouse cochlea ([14]). One hundred sixty-two unique small-molecule kinase-specific inhibitors were screened in dose-response mode for protection from 50 μM cisplatin. A caspase-3/7 activity assay was selected to measure apoptosis using a protocol that quantifies a luminescent product derived from the cleavage of caspase-3/7 substrate (Caspase-Glo 3/7 reagent). One hundred percent luminescence was defined by cells treated with cisplatin alone, and 0% was defined by untreated cells (Fig. 1A, fig. S1, table S1, and dataset in the Supplementary Materials).
In these screens, caspase-3 cleavage was chosen as the end point indicating cisplatin-induced apoptosis, because it allowed the inhibition of cell death to be monitored at the level of any molecular target upstream of caspase-3 cleavage in the HEI-OC1 cell line. Cells were plated at a previously optimized concentration of 1600 cells per well in medium without γ-interferon to limit proliferation and tested against 50 μM cisplatin based on a previous dose–response curve. Tested compounds were dissolved in DMSO before addition to medium with a final DMSO concentration of <0.5%. The screens are described in detail in our previous publications ([12], [13]). […]

SHP-77 small cell = assay: Tumor Cell Titer-Glo viability assay, SHP-77; format: cell-based, human
Source text: as §1, §2

[2] = set-up: method as in PMID 29039591, PMID 31818130; conditions: cited from earlier work
[3] = system: phosphorylated ERK (pERK); assay: pERK immunostaining of cisplatin-treated cochlear explants; format: cell-based, mouse; conditions: 3 μM, 1 hour pretreatment, 10 min 150 μM cisplatin
Source text: Tissue samples were then imaged via confocal microscopy.

[4] = system: P3-P4 FVB mouse cochlear explants; conditions: FVB, mouse, 24 h
Protocol: Mouse cochlear explants are widely recognized as an alternative to in vivo cochlear models and pragmatic for focused drug screening ([37]). […] Medium-alone, drug-alone, and cisplatin-alone treatments were used as controls.
P3-P4 FVB mouse cochleae were dissected and maintained in culture on filter inserts in six-well plates with 1 ml of growth medium DMEM (12430-054,Gibco Life Technologies), with 1% FBS (16000-044, Gibco Life Technologies), B-27 supplement (200 μl/500 ml; 17504-44, Gibco Life Technologies), N-2 supplement (100 μl/500 ml; 17502-048, Gibco Life Technologies), and ampicillin (50 μg/ml; A5354-10ML, Sigma-Aldrich) both inside and outside the filter (Millicell, PICM03050, Millipore). […] Cochleae were imaged by confocal microscopy, two 160-μm regions from middle turns were photographed, and the number of intact HCs was counted. Two to five independent cochleae were tested for each experimental condition.

[5] = system: BRAF, MEK, and ERK phosphorylation; assay: Western blot of cisplatin-induced MAPK phosphorylation in HEI-OC1 cells; conditions: 14, 35, or 75 μM, 1 hour pretreatment, 50 μM cisplatin 1 hour
Protocol: Whole lysates of HEI-OC1 cells were prepared in lysis buffer (9803, Cell Signaling Technology) after adding protease (cOmplete ULTRA Tablets 05892791001) and phosphatase (PhosSTOP 04906845001) inhibitors (Roche). The lysates were centrifuged for 10 min at 15,000g at 4°C, and the supernatants were collected. Protein concentrations in protein solutions were determined with the BCA protein assay kit (23235, Thermo Fisher Scientific). Forty micrograms of total cell lysate was loaded on 4 to 20% SDS–polyacrylamide gel electrophoresis gels. The following antibodies were used for immunoblot analysis: anti-BRAF (14814S), anti-pBRAF (Ser^445, 2696S), anti-ERK1/2 (4695), anti-pERK1/2 (Thr^202/Tyr^204, 9101S), anti-MEK1/2 (9122S), and anti-pMEK1/2 (Ser^217/221, 41G9S) were obtained from Cell Signaling Technologies and anti–β-actin (C4; SC-47778) was purchased from Santa Cruz. The antibodies were used at dilutions ranging from 1:500 to 1:1000. Anti-mouse (P0447) and anti-rabbit (P0448) secondary antibodies were purchased from Dako Laboratories and diluted 1:5000. National Institutes of Health (NIH) ImageJ software was used to quantify the band intensities and recorded as a ratio to loading control β-actin. Each Western blot series (n) was carried out using cell lysates from separate experiments. Blot intensities were quantified using NIH ImageJ software.

CC(C)(C)c1nc(-c2cccc(NS(=O)(=O)c3c(F)cccc3F)c2F)c(-c2ccnc(N)n2)s1 [dabrafenib]
effect on cisplatin-induced tumor cell death [1]: no inhibitory effect | IC50 (HEI-OC1 cell line): 13.5 µM | effect on tumor cell death when combined with cisplatin (SHP-77 small cell; SHP-77, 35 μM + 15 μM cisplatin, 48 hours): increased tumor cell death | cell survival, drug treatment alone (SHP-77 small cell; SHP-77, 35 μM, no cisplatin): significant inhibition | blood-brain barrier penetration [2]: penetrates the blood-brain barrier | effect on cisplatin-induced ERK phosphorylation in DC and IPhC regions [3]: prevented ERK activation | LD50 (median lethal dose) [4]: > 60 µM | effect on cisplatin-induced BRAF, MEK, and ERK phosphorylation [5]: mitigated these changes in a dose-dependent manner
